From ChEMBL document CHEMBL1150757, “Isolation, structure, synthesis, and antimitotic properties of combretastatins B-3 and B-4 from Combretum caffrum” (J Nat Prod, 1988)

How the values were obtained:
[1] = Displacement of [3H]colchicine from tubulin at inhibitor and colchicine ratio 1:1 after 10 mins relative to control; design: concentration or dose not given beside the values; conditions: values are per cent of control
[2] = Inhibition of microtubule assembly after 15 mins
[3] = Displacement of [3H]colchicine from tubulin at inhibitor and colchicine ratio 10:1 after 10 mins relative to control; design: concentration or dose not given beside the values; conditions: values are per cent of control
[4] = Displacement of [3H]colchicine from tubulin at inhibitor and colchicine ratio 100:1 after 10 mins relative to control; conditions: values are per cent of control
[5] = test system: L1210; assay: Cytotoxicity against mouse L1210 cells after 24 hrs; assay type: functional, cell-based; conditions: L1210, 24 h
[6] = test system: L1210; assay: Antimitotic activity in mouse L1210 cells assessed as increase in mitotic index at 2 to 7 times IC50 after 6 hrs relative to control; assay type: functional
[7] = test system: P388; assay: Cytotoxicity against mouse P388 cells; assay type: functional

Row | Structure (SMILES) | residual binding, % of control [1] | IC50 [2] | residual binding, % of control [3] | residual binding, % of control [4] | IC50 [5] | Activity [6] | ED50 [7]
1 | COc1cc([C@@H]2c3cc4c(cc3[C@H](O)[C@H]3COC(=O)[C@H]23)OCO4)cc(OC)c1OC [PODOFILOX] | 11% | 4 µM | 0% | – | – | – | –
2 | COc1cc(CCc2ccc(OC)c(OC)c2)cc(OC)c1 | 90% | > 100 µM | 80% | 34% | 30 µM | 56% | –
3 | COc1ccc(/C=C\c2cc(OC)c(OC)c(OC)c2)c(O)c1O [COMBRETASTATIN A-1] | 3% | 4 µM | 0% | – | 0.6 µM | 25% | –
4 | COc1ccc(CCc2cc(OC)c(OC)c(OC)c2)cc1OC | 88% | > 100 µM | 63% | 37% | 20 µM | 25% | –
5 | COc1cc(CCc2ccc(O)cc2)cc(OC)c1OC | 89% | > 100 µM | 77% | 43% | 50 µM | 25% | 0.25 Ug/ml
6 | COc1cc(CCc2ccc(O)c(O)c2)cc(OC)c1OC | 92% | > 100 µM | 81% | 48% | 3 µM | 25% | 0.4 Ug/ml
7 | COc1cc(CCc2ccc(O)c(O)c2)cc(OC)c1 | 75% | > 100 µM | 31% | 10% | 1 µM | 25% | 1.7 Ug/ml
8 | COc1ccc(CCc2cc(OC)c(OC)c(OC)c2)c(O)c1O | 13% | 4 µM | 0% | – | 2 µM | 25% | –
9 | COc1cc(CCc2ccc(OC)c(O)c2)cc(OC)c1 | 38% | 30 µM | 8% | 3% | 1 µM | 25% | 1.7 Ug/ml
